Data from PubChem BioAssay (NCI).
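All cell lines were grown in 96-well plates and treated with compound for 48 hours. Definition used: TGI = concentration required for complete inhibition of growth.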

What was measured:
Assay in all cases: NCI anticancer screen, dose series, 48 h
MALME-3M melanoma = system: MALME-3M melanoma
SNB-75 CNS = system: SNB-75 CNS
SK-MEL-5 melanoma = system: SK-MEL-5 melanoma
IGROV1 ovarian = system: IGROV1 ovarian
SK-MEL-28 melanoma = system: SK-MEL-28 melanoma

Fc1ccc(C(OCCN2CC3CCC(C2)N3CCCc2ccccc2)c2ccc(F)cc2)cc1
TGI (MALME-3M melanoma): 11.2 µM | TGI (SNB-75 CNS): 17 µM | TGI (SK-MEL-5 melanoma): 3.4 µM | TGI (IGROV1 ovarian): 21.1 µM | TGI (SK-MEL-28 melanoma): 22.2 µM

CCOP(=O)(OCC)OC1c2[nH]cc(C(=O)OCc3ccccc3)c2-c2cc(C(=O)OC)[nH]c2C1OC (stereo not given)
TGI (MALME-3M melanoma): 60 µM | TGI (SNB-75 CNS): 56.2 µM | TGI (SK-MEL-5 melanoma): > 82.8 µM | TGI (IGROV1 ovarian): 31.6 µM | TGI (SK-MEL-28 melanoma): > 100 µM

Cc1ccc(N/C(SCc2ccccc2)=C(\C(Cl)=C(Cl)Cl)[N+](=O)[O-])c(C)c1
TGI (MALME-3M melanoma): 47.5 µM | TGI (SNB-75 CNS): 85.9 µM | TGI (SK-MEL-28 melanoma): 71.6 µM

CC1=C(C(=O)N[C@@H](CC(C)C)C(=O)O)N2C(=O)[C@@H](NC(=O)C(N)c3ccccc3)[C@H]2SC1 (stereo not given in full)
TGI (MALME-3M melanoma): > 100 µM | TGI (SNB-75 CNS): > 100 µM | TGI (SK-MEL-5 melanoma): > 100 µM | TGI (IGROV1 ovarian): > 100 µM | TGI (SK-MEL-28 melanoma): > 100 µM

C#CC1(O)CCCCCCCCC2(CCCCCCCC1)OCCO2
TGI (MALME-3M melanoma): 34.3 µM | TGI (SK-MEL-5 melanoma): 33.4 µM | TGI (IGROV1 ovarian): 30.3 µM | TGI (SK-MEL-28 melanoma): 35.1 µM

CCOC(=O)C(Cl)(NC(=O)OCc1ccccc1)C(F)(F)F (stereo not given)
TGI (MALME-3M melanoma): > 100 µM | TGI (SNB-75 CNS): > 100 µM | TGI (SK-MEL-5 melanoma): > 100 µM | TGI (IGROV1 ovarian): > 100 µM | TGI (SK-MEL-28 melanoma): > 100 µM

CCOc1ccc(N/C(=C(/C(Cl)=C(/Cl)NC(C)(C)C)[N+](=O)[O-])n2nnc3ccccc32)cc1
TGI (MALME-3M melanoma): 33.3 µM | TGI (SNB-75 CNS): 54 µM | TGI (SK-MEL-28 melanoma): 38.8 µM

N#Cc1c(O)c(/C=N/c2ncccn2)c(=O)n2c1[nH]c1ccccc12
TGI (MALME-3M melanoma): > 100 µM | TGI (SNB-75 CNS): > 100 µM | TGI (SK-MEL-5 melanoma): > 100 µM | TGI (IGROV1 ovarian): > 100 µM | TGI (SK-MEL-28 melanoma): > 100 µM

COc1ccc(NC(=S)c2ccoc2C)cc1CC(=O)OC(C)C
TGI (SNB-75 CNS): 93.9 µM | TGI (SK-MEL-5 melanoma): > 100 µM | TGI (IGROV1 ovarian): > 100 µM | TGI (SK-MEL-28 melanoma): > 100 µM

ON=C(CC(O)(C(F)(F)Cl)C(F)(F)Cl)CC(O)(C(F)(F)Cl)C(F)(F)Cl
TGI (MALME-3M melanoma): > 10 µM | TGI (SNB-75 CNS): > 10 µM | TGI (SK-MEL-5 melanoma): > 10 µM | TGI (IGROV1 ovarian): > 10 µM | TGI (SK-MEL-28 melanoma): > 10 µM

O=C(N/N=C(/COc1ccccc1)N=Cc1cccnc1)c1ccncc1
TGI (MALME-3M melanoma): > 100 µM | TGI (SNB-75 CNS): > 100 µM | TGI (IGROV1 ovarian): > 100 µM | TGI (SK-MEL-28 melanoma): > 100 µM

COC(=O)/C=C1/OC(c2ccc(OC)cc2)=C(Cl)C1=O
TGI (MALME-3M melanoma): 30.7 µM | TGI (SNB-75 CNS): 37.3 µM | TGI (SK-MEL-5 melanoma): 27.2 µM | TGI (IGROV1 ovarian): 34.1 µM | TGI (SK-MEL-28 melanoma): 32.6 µM

O=C(OCCNC(=O)N1CC1)OCCNC(=O)N1CC1
TGI (MALME-3M melanoma): > 10 µM | TGI (SNB-75 CNS): > 10 µM | TGI (SK-MEL-5 melanoma): > 10 µM | TGI (IGROV1 ovarian): > 10 µM | TGI (SK-MEL-28 melanoma): > 10 µM

Cc1cnc2sn(-c3ccc(Br)cc3)c(=O)c2c1
TGI (MALME-3M melanoma): 43.6 µM | TGI (SNB-75 CNS): > 100 µM | TGI (SK-MEL-5 melanoma): > 100 µM | TGI (IGROV1 ovarian): > 100 µM | TGI (SK-MEL-28 melanoma): > 100 µM

Cc1cccc(N/C(Sc2ccccc2)=C(/C(Cl)=C(Cl)Cl)[N+](=O)[O-])c1
TGI (MALME-3M melanoma): 30.2 µM | TGI (SNB-75 CNS): 68 µM | TGI (SK-MEL-28 melanoma): 32.4 µM

CCOC(=O)NN(C(=O)OCC)c1c(C)cc(C)cc1C
TGI (MALME-3M melanoma): > 100 µM | TGI (SNB-75 CNS): > 100 µM | TGI (SK-MEL-5 melanoma): > 100 µM | TGI (IGROV1 ovarian): > 100 µM | TGI (SK-MEL-28 melanoma): > 100 µM

CC(C)N(C(C)C)S(=O)(=O)C[C@]12CC[C@H](CC13OCC(CS(=O)(=O)c1ccccc1)O3)C2(C)C (stereo not given in full)
TGI (MALME-3M melanoma): > 100 µM | TGI (SNB-75 CNS): > 100 µM | TGI (SK-MEL-5 melanoma): > 100 µM | TGI (IGROV1 ovarian): > 59.5 µM | TGI (SK-MEL-28 melanoma): > 100 µM

Cc1ccc2c(/C=C/c3ccc(N(C)C)cc3)ccc(C(C)C)cc1-2
TGI (MALME-3M melanoma): > 100 µM | TGI (SNB-75 CNS): > 100 µM | TGI (SK-MEL-5 melanoma): > 100 µM | TGI (IGROV1 ovarian): > 100 µM | TGI (SK-MEL-28 melanoma): > 100 µM

CC1(C)[C@@H]2C[C@H]1c1cnc(-c3ccccn3)cc1C2CCCCC[C@@H]1c2cc(-c3ccccn3)ncc2[C@@H]2C[C@H]1C2(C)C (stereo not given in full)
TGI (MALME-3M melanoma): > 100 µM | TGI (SNB-75 CNS): > 22.6 µM | TGI (SK-MEL-5 melanoma): > 38.5 µM | TGI (IGROV1 ovarian): 46.1 µM | TGI (SK-MEL-28 melanoma): > 100 µM

COC(=O)C12OC3CO[Si](C(C)C)(C(C)C)O[Si](C(C)C)(C(C)C)OC3C1Oc1nc(=O)ccn12 (stereo not given)
TGI (MALME-3M melanoma): 28.1 µM | TGI (SK-MEL-5 melanoma): 29.7 µM | TGI (IGROV1 ovarian): 24 µM | TGI (SK-MEL-28 melanoma): 30.4 µM

ClCCCCCc1c2nc(c(CCCCCCl)c3ccc([nH]3)c(CCCCCCl)c3ccc([nH]3)c(CCCCCCl)c3nc1C=C3)C=C2
TGI (MALME-3M melanoma): > 100 µM | TGI (SNB-75 CNS): > 100 µM | TGI (SK-MEL-5 melanoma): > 100 µM | TGI (IGROV1 ovarian): > 100 µM | TGI (SK-MEL-28 melanoma): > 100 µM

CN1CC2CN(Cc3ccccc3)CCN2c2cccnc21 (stereo not given)
TGI (MALME-3M melanoma): > 100 µM | TGI (SNB-75 CNS): > 100 µM | TGI (SK-MEL-5 melanoma): > 100 µM | TGI (IGROV1 ovarian): > 100 µM

CC1C(C#N)(C#N)C(C#N)=C(N)C1(Cl)[N+](=O)[O-] (stereo not given)
TGI (MALME-3M melanoma): 18.7 µM | TGI (SNB-75 CNS): 24.7 µM | TGI (SK-MEL-5 melanoma): 25.4 µM | TGI (IGROV1 ovarian): 22.5 µM

CC(=O)OC(Cc1c(O)c2c(C)cccc2oc1=O)C(C)(C)O (stereo not given)
TGI (MALME-3M melanoma): > 100 µM | TGI (SNB-75 CNS): > 100 µM | TGI (SK-MEL-5 melanoma): > 100 µM | TGI (IGROV1 ovarian): > 100 µM | TGI (SK-MEL-28 melanoma): > 100 µM

Cc1n(Cc2ccccc2)nc2sc(N)n[n+]12
TGI (MALME-3M melanoma): > 100 µM | TGI (SNB-75 CNS): > 100 µM | TGI (SK-MEL-5 melanoma): > 100 µM | TGI (IGROV1 ovarian): > 100 µM | TGI (SK-MEL-28 melanoma): > 100 µM

O=C(c1ccc(Cl)cc1)N(C(=S)OCCOc1ccccc1)c1ccccc1
TGI (MALME-3M melanoma): 70.7 µM | TGI (IGROV1 ovarian): 38.1 µM | TGI (SK-MEL-28 melanoma): 34.9 µM

Cn1c(N)nc(-c2ccc(Cl)cc2)c1SSc1c(-c2ccc(Cl)cc2)nc(N)n1C
TGI (MALME-3M melanoma): 4.57 µM | TGI (SNB-75 CNS): 20.8 µM | TGI (SK-MEL-5 melanoma): 3.2 µM | TGI (IGROV1 ovarian): 9.21 µM | TGI (SK-MEL-28 melanoma): 3.76 µM

CN(C)Cc1cc(N=Nc2ccc(Cl)cc2)cc(CN(C)C)c1O
TGI (MALME-3M melanoma): 28.6 µM | TGI (SNB-75 CNS): 25.8 µM | TGI (SK-MEL-5 melanoma): 21.1 µM | TGI (IGROV1 ovarian): 12 µM | TGI (SK-MEL-28 melanoma): 23.9 µM

CCOC(=O)c1nnc2c(C#N)c(-c3ccccc3)c(C)n2c1N
TGI (MALME-3M melanoma): 65.2 µM | TGI (SK-MEL-5 melanoma): > 100 µM | TGI (IGROV1 ovarian): 66.6 µM | TGI (SK-MEL-28 melanoma): 73.2 µM

CN(C)c1ccc(C=C2C(=O)NC(=S)NC2=O)c2ccccc12
TGI (MALME-3M melanoma): > 100 µM | TGI (SNB-75 CNS): > 100 µM | TGI (SK-MEL-5 melanoma): > 100 µM | TGI (IGROV1 ovarian): > 100 µM | TGI (SK-MEL-28 melanoma): > 100 µM

COC(=O)CC1c2ccccc2N2C(=O)Cc3c([nH]c4ccccc34)C12 (stereo not given)
TGI (MALME-3M melanoma): > 100 µM | TGI (SNB-75 CNS): > 100 µM | TGI (SK-MEL-5 melanoma): > 100 µM | TGI (IGROV1 ovarian): > 100 µM | TGI (SK-MEL-28 melanoma): > 100 µM

CSc1nc2c(c(=O)[nH]1)N=C(c1ccccc1)CC(c1ccccc1)N2 (stereo not given)
TGI (MALME-3M melanoma): 75.6 µM | TGI (SNB-75 CNS): 44.6 µM | TGI (SK-MEL-5 melanoma): 88.4 µM | TGI (IGROV1 ovarian): > 100 µM | TGI (SK-MEL-28 melanoma): > 100 µM

CCN1CN(c2ccccc2)C2(CCN(CC(CC3OCCO3)c3ccc(F)cc3)CC2)C1=O (stereo not given)
TGI (MALME-3M melanoma): 43.1 µM | TGI (SNB-75 CNS): 93 µM | TGI (SK-MEL-5 melanoma): 15.2 µM | TGI (IGROV1 ovarian): > 53.8 µM | TGI (SK-MEL-28 melanoma): 40.5 µM
